Measured values published in patent publication US20250263667A1, “HUMAN FATTY-LIVER MODEL CELLS FOR USE IN SCREENING METHOD” (PhoenixBio Co., Ltd., priority 2021, published 2025).

Columns and labels:
Type in all cases: cell-based, human
[1] = tested on: PXB-cells; experiment: Analysis of lipoprotein in cells (intracellular triglyceride and cholesterol, Cholestest) of PXB-cells; settings: 2 days, data not shown
Description: Triglyceride in cells was measured by use of Cholestest (registered trademark) TG (Sekisui Medical Co., Ltd.) in accordance with the instruction by the manufacturer. More specifically, the cells were washed with PBS, and then, completely dewatered (stored at -80° C. until measurement). To each well containing the cells, 200 μL of TG enzyme solution (1) was added. A reaction was allowed to proceed while keeping the cells warm at 37° C. for 10 minutes (free glycerol was removed) Then, the cells were torn away by pipetting, transferred to a centrifuge tube and centrifuged at 10,000 rpm×10 minutes. Then, the supernatant (7.5 μL) was transferred to a 96-well microplate. To this, 68 μL of TG enzyme solution (1) was added and the microplate was kept warm at 37° C. for 10 minutes to remove completely free glycerol. Then, 25 μL of TG enzyme solution (2) was added and kept the plate warm at 37° C. for 10 minutes. The resultant reaction product was subjected to measurement of absorbance at 550 nm. The content of triglyceride was calculated based on HDL-[…] as the reference (triglyceride concentration of HDL-[…] was 52.26 mg/dL). Intracellular cholesterol was measured by use of Cholestest (registered trademark) CHO (Sekisui Medical Co., Ltd.) in accordance with the instruction by the manufacturer. […] The resultant reaction product was subjected to measurement of absorbance at 550 nm. The content of cholesterol was calculated based on HDL-[…] as the standard ([…] of HDL-[…] was 152.67 mg/dL). […] After completion of culture, the total cholesterol and total neutral fat (triglyceride) in culture supernatant and in cells were measured in accordance with the methods described in the sections “Analysis of lipoprotein in culture supernatant” and “Analysis of lipoprotein in cells”. […] After completion of the culture, cholesterol and neutral fat (triglyceride) in the culture supernatant and cells were measured in accordance with the method described in the above sections “analysis of lipoprotein in culture supernatant” and “analysis of lipoprotein in cells”, respectively. […]

[2] = tested on: PXB-cells; experiment: Analysis of lipoprotein in culture supernatant (LipoSEARCH gel filtration HPLC) of PXB-cells; settings: for content of Large-VLDL among the VLDL in the culture supernatant (neutral fat (triglyceride)): Large-VLDL alone changed
Description: The following day of seeding, medium A was removed. Instead, 500 μL of medium B (DMSO (+)) or medium C (DMSO (−)) was added. The plate was gently placed in an incubator (37° C., 5% CO2) and the cells were cultured for 5 days. After completion of culture, an image of the cells was taken by a photomicrographic camera. Then, the culture supernatant was recovered and subjected to analysis for lipoprotein in the culture supernatant described below. Lipoproteins contained in the culture supernatants of PXB-cells, HepG2 cells and HuH7 cells were analyzed by using LipoSEARCH (registered trademark) method (Skylight Biotech, Inc.). After completion of the culture mentioned above, the medium used in the culture was removed and 500 μL of medium D for analysis was added. The culture plate was gently placed in an incubator (37° C., 5% CO2) and the cells were cultured for 2 days. Thereafter, the culture supernatant was recovered, lipoproteins contained in the culture supernatant (80 μL) were fractionated into 4 types of subgroups, CM, VLDL, LDL and HDL fractions, by gel filtration HPLC. Cholesterol and neutral fat (triglyceride) contained in individual fractions were quantified by online enzyme reactions. Concentration analysis was carried out in accordance with the computer program specifically developed by Skylight Biotech, Inc. Note that, in the enzymatic reaction, Diacolor Liquid TG-S (manufactured by Toyobo Co., Ltd.) was used. As standard sera for cholesterol and neutral fat (triglyceride) concentration in CM, VLDL, LDL and HDL, the sera manufactured by Kyowa Hakko Kirin Co., Ltd. were used. PXB-cells were diluted with medium A. The diluted cell suspension (500 μL) was gently poured to individual wells of a culture plate. The plate was allowed to stand still for about 20 minutes until the cells were slightly in contact with the bottom surface of the wells and gently placed to an incubator (37° C., 5% CO2) to culture the cells. The following day of seeding, medium A was removed and 500 μL of medium B (DMSO (+)) was added. The plate was gently placed in an incubator (37° C., 5% CO2) and the cells were cultured for 13 days. After completion of culture, the cells were used in the following test. A medium of PXB-cells prepared above was exchanged with medium D containing 0.75 mM oleic acid, and gently placed in an incubator (37° C., 5% CO2). PXB-cells were cultured for two days. PXB-cells were prepared in the same manner as in the method set forth in “Preparation of cells” in the above step (1-1) except that the period of culture in medium B (DMSO (+)) was set at 6 days and subjected to the following test. The mediums for the PXB-cells prepared above were exchanged with mediums D containing 1 nM or 5 nM lomitapide respectively and gently placed in an incubator (37° C., 5% CO2). PXB-cells were cultured for two days. PXB-cells were prepared in the same manner as in the method set forth in “Preparation of cells” in the above step (1-1) and subjected to the following test. The mediums of the PXB-cells prepared above were exchanged with mediums D containing 10 μM, 50 μM or 100 μM fenofibrate and gently placed in an incubator (37° C., 5% CO2). The PXB-cells were cultured for 2 days. After completion of the culture, cholesterol and neutral fat (triglyceride) in the culture supernatant and cells were measured in accordance with the method described in the above section “Analysis of lipoprotein in culture supernatant” and “Analysis of lipoprotein in cells”, respectively.

[3] = tested on: PXB-cells; experiment: Observation of fat droplets in PXB-cells by photomicrograph; settings: 2% DMSO in medium, 5 days culture
Description: The following day of seeding, medium A was removed. Instead, 500 μL of medium B (DMSO (+)) or medium C (DMSO (−)) was added. The plate was gently placed in an incubator (37° C., 5% CO2) and the cells were cultured for 5 days. After completion of culture, an image of the cells was taken by a photomicrographic camera. Then, the culture supernatant was recovered and subjected to analysis for lipoprotein in the culture supernatant described below.

With `O=C(NC1CCN(CCCCC2(C(=O)NCC(F)(F)F)c3ccccc3-c3ccccc32)CC1)c1ccccc1-c1ccc(C(F)(F)F)cc1` [lomitapide] the “content of neutral fat (triglyceride) in the cells” value ([1]; lomitapide (1 nM or 5 nM)) was “no change”, the “VLDL content of the culture supernatant (neutral fat (triglyceride))” value ([2]; 5 nM lomitapide in medium D, 2 days, PXB-cells pre-cultured 6 days in medium B (DMSO (+)), vs ethanol control) was “significantly decreases” and the “content of Large-VLDL among the VLDL in the culture supernatant (neutral fat (triglyceride))” value ([2]; lomitapide in medium D, 2 days) was “significantly decreased”.

In the case of `C[S+](C)[O-]` [DMSO, dimethyl sulfoxide], the “number of fat droplets in PXB-cells, medium B (DMSO (+)) compared to medium C (DMSO (−))” value [3] is reported as “about double” and the “secretion of total neutral fat (triglyceride) in lipoproteins, medium B (DMSO (+)) relative to medium C (DMSO (−))” value ([2]; 2% DMSO in medium, 5 days culture, culture supernatant) is reported as “about 9 times”.

`CCCCCCCC/C=C\CCCCCCCC(=O)O` [oleic acid] was tested, and the “content of cholesterol in the cells” value ([1]; 0.75 mM oleic acid) was “change similarly to the content of neutral fat (triglyceride)”, the “content of neutral fat (triglyceride) in the cells” value ([1]; 0.75 mM oleic acid) was “significantly increased” and the “content of Large-VLDL among the VLDL in the culture supernatant (neutral fat (triglyceride))” value ([2]; 0.75 mM oleic acid in medium D, 2 days) was “significantly increased”. For the same compound, the “VLDL content in the culture supernatant (neutral fat (triglyceride))” value ([2]; 0.75 mM oleic acid in medium D, 2 days, PXB-cells pre-cultured 13 days in medium B (DMSO (+)), vs medium D control) was “significantly increased” and the “content of cholesterol in the culture supernatant” value ([2]; 0.75 mM oleic acid, 2 days, data not shown) was “change similarly to the content of neutral fat (triglyceride)”.
